# Assay results from patent publication US20190255073A1, “ESTERS OF 3-POLYAMINE DERIVATIVES OF BILE ACIDS FOR THE TREATMENT OF INFECTIONS” (VIRBAC, priority 2016, published 2019).
# Read-outs that look alike come from different tables or passages of the source.
# Assays:
# P. aeruginosa (1051575) [1] = test: Potentiation of the doxycycline activity at 2 μg/mL; type: cell-based, Pseudomonas aeruginosa; settings: in combination with doxycycline 2 μg/mL; 24 h, 37°
# E. coli ATCC28922 = test: MIC determination by microplate dilution, E. coli human strain; type: cell-based, Escherichia coli; settings: Escherichia coli, ATCC28922, Gram-negative, Mueller-Hinton medium, 24 h, 37° C.
# Procedure: (§1) 1) Preparation of the Preculture
# (§2) A negative control (2 mL of sterile culture medium)
# (§3) A positive control (1940 μL of culture medium+40 μL of DMSO+20 μL of bacterial suspension) from a thawed biological strain (the biological strains are stored at −80° C. in glycerol).
# (§4) The tubes were incubated at 37° C. for 24 hours at 100 rpm.
# (§5) The microorganisms were handled under a type L2 laboratory fume cupboard and, before any handling, a UV cycle was programmed and only sterile material was used. […] The chemical compounds to be tested were prepared in a DMSO/methanol mixture (50/50) at a concentration of 5 mg/mL.
# (§6) 2) Preparation of the Microplate for the Determination of the Minimum Inhibitory Concentration (MIC)
# (§7) After 24 hours of incubation, a measurement of the optical density was taken using a spectrophotometer at 600 nm, collecting 100 μL of the bacterial suspension diluted in 900 μL of the sterile culture medium. This test required the use of a 96-well plate and the required volume of the microbial suspension to be seeded was calculated for an OD corresponding to a value equal to 0.01 in each well. In this plate, the first line corresponded to the negative control (195 μL of sterile culture medium in each well), the second line to the positive control (seeded culture medium supplemented with 2% of DMSO), the third line was loaded twice with bacterial suspension, 8 μL of test product were placed in each well. Thereafter, a 0.5 cascade dilution was performed from this line.
# (§8) The first column served as inhibition control. A sterile filter was then placed on the microplate, allowing the passage of gases but not of contaminants. The microplate was incubated at 37° C. under a humid atmosphere for 24 hours.
# (§9) NB: The medium used is Mueller-Hinton (MH) medium for bacteria. All the tests were performed in duplicate.
# (§10) 4) Reading of the Results
# (§11) After incubation, the filter was replaced with a transparent film, and an OD reading was then taken in an iEMS plate spectrophotometer at 620 nm. Calculation of the minimum inhibitory concentration (MIC) was performed.
# S. intermedius (1051997) = test: MIC determination by microplate dilution, S. intermedius animal strain; type: cell-based, Staphylococcus intermedius; settings: Staphylococcus intermedius, Gram-positive, Mueller-Hinton medium, 24 h, 37° C.
# Procedure: as §1, §2, §3, §4, §5, §6, §7, §8, §9, §10, §11
# E. coli (1956) = test: MIC determination by microplate dilution, E. coli animal strain; type: cell-based, Escherichia coli; settings: Escherichia coli, Gram-negative, Mueller-Hinton medium, 24 h, 37° C.
# Procedure: as §1, §2, §3, §4, §5, §6, §7, §8, §9, §10, §11
# P. aeruginosa (1051575) [2] = test: MIC determination by microplate dilution, P. aeruginosa animal strain; type: cell-based, Pseudomonas aeruginosa; settings: Pseudomonas aeruginosa, Gram-negative, Mueller-Hinton medium, 24 h, 37° C.
# Procedure: as §1, §2, §3, §4, §5, §6, §7, §8, §9, §10, §11
# CHO-K1 cells = test: WST1 cytotoxicity test on CHO-K1 cells; type: cell-based, Chinese hamster; settings: Cricetulus griseus, read-out: IC50 (μg/mL) CHO
# Procedure: Test WST1 was used to measure the cytotoxic activity of the products. This is a colorimetric test which makes it possible to measure the viability and the degree of cell proliferation. It is based on cleavage of the colorless tetrazolium salts WST-1 (4-[3-(4-iodophenyl)-2-(4-nitrophenyl)-2H-5-tetrazolio]-1,3-benzene disulfonate) with mitochondrial dehydrogenases to the yellow-colored formazan derivative, which may be quantified by spectrophotometry at 420-480 nm.
# The WST1 test was performed on Chinese hamster ovary cells. The CHO-K1 cells (ATCC, USA) are kept in culture on McCoy's 5A medium supplemented with 10% fetal calf serum, 2 mM of L-glutamine and a mixture of penicillin-streptomycin (100 U/ml: 10 μg/mL). The culture is incubated at 37° C. under an atmosphere enriched in CO2 (5%), and subcultured every two days.
# The cells are transferred into 96-well plates (25 000 cells/mL) in whole McCoy's 5A medium, and maintained for 24 hours at 37° C. under a humid atmosphere enriched in CO2 (5%). Increasing concentrations of test products are added to the wells in double tests and 8 growth controls containing the cells in the medium alone are included in each series of tests. After 24 hours at 37° C. (5% CO2), the culture medium is removed, the cells are rinsed in phosphate buffer (PBS) and 50 μL of PBS containing 10% of reagent WST1 are added to each well. After 20 minutes of incubation at 37° C., the results are read by spectrophotometry at 450 nm.
# The results are expressed in dose-response relationships, modeled by nonlinear regression analysis using the TableCurve software. The 50% inhibitory concentration (IC50) represents the concentration of product that is capable of reducing the cell viability by 50%.
# S. aureus (340) = test: MIC determination by microplate dilution, S. aureus animal strain; type: cell-based, Staphylococcus aureus; settings: Staphylococcus aureus, Gram-positive, Mueller-Hinton medium, 24 h, 37° C.
# Procedure: as §1, §2, §3, §4, §5, §6, §7, §8, §9, §10, §11
# P. aeruginosa ATCC27853 = test: MIC determination by microplate dilution, P. aeruginosa human strain; type: cell-based, Pseudomonas aeruginosa; settings: Pseudomonas aeruginosa, ATCC27853, Gram-negative, Mueller-Hinton medium, 24 h, 37° C.
# Procedure: as §1, §2, §3, §4, §5, §6, §7, §8, §9, §10, §11
# E. faecalis ATCC29212 = test: MIC determination by microplate dilution, E. faecalis human strain; type: cell-based, Enterococcus faecalis; settings: Enterococcus faecalis, ATCC29212, Gram-positive, Mueller-Hinton medium, 24 h, 37° C.
# Procedure: as §1, §2, §3, §4, §5, §6, §7, §8, §9, §10, §11
# S. aureus ATCC25923 = test: MIC determination by microplate dilution, S. aureus human strain; type: cell-based, Staphylococcus aureus; settings: Staphylococcus aureus, ATCC25923, Gram-positive, Mueller-Hinton medium, 24 h, 37° C.
# Procedure: as §1, §2, §3, §4, §5, §6, §7, §8, §9, §10, §11
# [3] = Table III, WST1, CHO-K1 cells, 24 h, concentration reducing cell viability by 50%
Compound,MIC - P. aeruginosa (1051575): content of compound of formula (I) to restore the doxycycline activity (at 2 μg/mL) (P. aeruginosa (1051575) [1]),MIC (E. coli ATCC28922),MIC (S. intermedius (1051997)),MIC (E. coli (1956)),MIC (P. aeruginosa (1051575) [2]),"IC50 (CHO-K1 cells; CHO-K1, 24 h)",MIC (S. aureus (340)),MIC (P. aeruginosa ATCC27853),MIC (E. faecalis ATCC29212),MIC (S. aureus ATCC25923),IC50 (CHO-K1 cells; [3])
"COC(=O)CC[C@@H](C)[C@H]1CCC2C3CCC4C[C@@H](NCCCNCCCN)CC[C@]4(C)C3CC[C@@]21C (stereo partly drawn) [(18), methyl 3β-norspermidinolithocholate]",3 µg/mL,32 µg/mL,0.7 µg/mL,3 µg/mL,3 µg/mL,80 µg/mL,0.7 µg/mL,,,,
"CC(C)OC(=O)CC[C@@H](C)[C@H]1CCC2C3C(CC[C@@]21C)[C@@]1(C)CC[C@H](NCCNCCNCCNCCNCCN)CC1C[C@H]3O (stereo partly drawn) [(23), isopropyl 3β-(pentaethylenehexamine)chenodeoxycholate]",8 µg/mL,16 µg/mL,8 µg/mL,32 µg/mL,64 µg/mL,,16 µg/mL,64 µg/mL,16 µg/mL,16 µg/mL,
"CC(C)OC(=O)CC[C@@H](C)[C@H]1CCC2C3C(CC[C@@]21C)[C@@]1(C)CC[C@H](NCCNCCNCCNCCNCCN)CC1C[C@@H]3O (stereo partly drawn) [(24), isopropyl 3β-(pentaethylenehexamine)ursodeoxycholate]",,,8 µg/mL,65 µg/mL,130 µg/mL,,32 µg/mL,,,,
"COC(=O)CC[C@@H](C)[C@H]1CCC2C3CCC4C[C@@H](NCCNCCNCCNCCNCCN)CC[C@]4(C)C3CC[C@@]21C (stereo partly drawn) [(25), methyl 3β-(pentaethylenehexamine)lithocholate]",,30 µg/mL,4 µg/mL,30 µg/mL,60 µg/mL,,8 µg/mL,60 µg/mL,15 µg/mL,8 µg/mL,76 µg/mL
"COC(=O)CC[C@@H](C)[C@H]1CCC2C3C(C[C@H](O)[C@@]21C)[C@@]1(C)CC[C@H](NCCCN(C)CCCN)C[C@H]1C[C@H]3O (stereo partly drawn) [(33), methyl 3β-(bis(3-aminopropyl)methylamine)cholate]",,27 µg/mL,14 µg/mL,50 µg/mL,50 µg/mL,,14 µg/mL,27 µg/mL,14 µg/mL,14 µg/mL,126 µg/mL
"CC(C)OC(=O)CC[C@@H](C)[C@H]1CCC2C3C(C[C@H](O)[C@@]21C)[C@@]1(C)CC[C@H](NCCN(CCN)CCN)CC1C[C@H]3O (stereo partly drawn) [(35), isopropyl 3β-(tris(2-aminoethyl)amine)cholate]",7 µg/mL,28 µg/mL,14 µg/mL,56 µg/mL,56 µg/mL,,,56 µg/mL,28 µg/mL,28 µg/mL,
"CC(C)OC(=O)CC[C@@H](C)[C@H]1CCC2C3C(CC[C@@]21C)[C@@]1(C)CC[C@H](NCCCN(CCCN)CCCN)CC1C[C@@H]3O (stereo partly drawn) [(42), isopropyl 3β-(tris(3-aminopropyl)amine)ursodeoxycholate]",4 µg/mL,,15 µg/mL,120 µg/mL,60 µg/mL,,30 µg/mL,,,,
"COC(=O)CC[C@@H](C)[C@H]1CCC2C3CCC4C[C@@H](NCCCN(C)CCCN)CC[C@]4(C)C3CC[C@@]21C (stereo partly drawn) [(45), methyl 3β-(bis(3-aminopropyl)methylamine)lithocholate]",,26 µg/mL,3 µg/mL,6 µg/mL,26 µg/mL,,6 µg/mL,26 µg/mL,12 µg/mL,12 µg/mL,46 µg/mL
"COC(=O)CC[C@@H](C)[C@H]1CCC2C3CCC4C[C@@H](NCCCN(CCCN)CCCN)CC[C@]4(C)C3CC[C@@]21C (stereo partly drawn) [(46), methyl 3β-(tris(3-aminopropyl)amine)lithocholate]",,56 µg/mL,4 µg/mL,28 µg/mL,28 µg/mL,,7 µg/mL,28 µg/mL,14 µg/mL,14 µg/mL,30 µg/mL
"COC(=O)CC[C@@H](C)[C@H]1CCC2C3C(CC[C@@]21C)[C@@]1(C)CC[C@H](NCCCN(CCCN)CCCN)CC1C[C@@H]3O (stereo partly drawn) [(52), methyl 3β-(tris(3-aminopropyl)amine)ursodeoxycholate]",7 µg/mL,30 µg/mL,,30 µg/mL,30 µg/mL,,14 µg/mL,14 µg/mL,30 µg/mL,14 µg/mL,
"COC(=O)CC[C@@H](C)[C@H]1CCC2C3C(C[C@H](O)[C@@]21C)[C@@]1(C)CC[C@H](NCCCNCCCN)C[C@H]1C[C@H]3O (stereo partly drawn) [Compound (5), methyl 3β-norspermidinocholate]",,14 µg/mL,2 µg/mL,27 µg/mL,,,7 µg/mL,7 µg/mL,3 µg/mL,3 µg/mL,
"COC(=O)CC[C@@H](C)[C@H]1CCC2C3C(CC[C@@]21C)[C@@]1(C)CC[C@H](NCCCNCCCNCCCN)CC1C[C@H]3O (stereo partly drawn) [Compound (8), methyl 3β-norsperminochenodeoxycholate]",1 µg/mL,15 µg/mL,2 µg/mL,29 µg/mL,7 µg/mL,22 µg/mL,4 µg/mL,,,4 µg/mL,
"CC(C)OC(=O)CC[C@@H](C)[C@H]1CCC2C3CCC4C[C@@H](NCCCNCCCNCCCN)CC[C@]4(C)C3CC[C@@]21C (stereo partly drawn) [Compound (15), isopropyl 3β-norsperminolithocholate]",2 µg/mL,14 µg/mL,1 µg/mL,7 µg/mL,2 µg/mL,15 µg/mL,7 µg/mL,,,7 µg/mL,
"COC(=O)CC[C@@H](C)[C@H]1CCC2C3CCC4C[C@@H](NCCCNCCCNCCCN)CC[C@]4(C)C3CC[C@@]21C (stereo partly drawn) [Compound (17), methyl 3β-norsperminolithocholate]",,28 µg/mL,4 µg/mL,7 µg/mL,7 µg/mL,,4 µg/mL,28 µg/mL,4 µg/mL,16 µg/mL,14 µg/mL
